Laboratory results taken from patent publication US5521155A, “Amides of teicoplanin compounds” (Gruppo Lepetit S.p.A, priority 1985, dated 1996).
In brackets after ≈: the same amount, converted by molar mass.

Key:
[1] = Acid-base titration (pK); assay type: physicochemical; settings: acid-base titration in METHYLCELLOSOLVE/H2O 4:1 (v/v), 0.01N KOH; for pK1 / pK2: salt form per Table IV
Protocol: The following table (Table IV) reports the acid-base titration data of some representative compounds of the invention. The assays were carried out in METHYLCELLOSOLVE/H2 O, 4:1(v/v). A sample is dissolved in METHYLCELLOSOLVE/H2 O, 4:1(v/v) (10 umole in about 20 ml) and then 0.01N HCl (2 ml) is added and the mixture is titrated with 0.01N KOH in the same solvent mixture.

[2] = Isoelectric point (pI) by isoelectrofocusing with bioautography detection; assay type: physicochemical; settings: IEF technique, polyacrylamide gel
Description: The isoelectrofocusing (IEF) technique coupled with bioautography detection has been used for the determination of the pI of representative compounds of the invention using the following materials: AMPHOLINE carrier ampholytes (40% w/v) were purchased from LKB Produketer AB, Bromma, Sweden. Acrylamide, N,N'-methylenbisacrylamide (BIS), N,N,N',N'-tetramethylethylenediamine (TEMED) and ammonium persulfate were from Bio Rad Laboratorie, Richmond, Calif., USA. Glycerol and Antibiotic agar N. 1 (Grove and Randall medium N. 1) were from E. Merck Darmstadt FRG. GEL FIX polyester sheets were purchased from Serva Feinbiochemica Heidelberg. Phenolindo (2,6-dichlorophenol) came from BDH Chemicals Ltd. Poole, England.
IEF was made on gel slab using a LKB MULITPHOR 2117 cell and a Bio-Rad Power Supply Model 1420A. Slabs of 24.5×11.5 cm and 1 mm thickness were prepared on a sheet of GEL FIX. Polyacrylamide gels with a concentration of 8% T and with a cross-linkage of 4% C (30% T stock solution was prepared by dissolving 28.8 g of acrylamide and 1.2 g of bis-acrylamide in 100 ml distilled water), glycerol, 3.5% v/v, 2% AMPHOLINE, 0.05% ammonium persulphate as catalyst and 0.05% TEMED as accelerator. The carrier ampholite composition for 35 ml gelling solution was as follows:
The electrode solutions, as recommended by LKB for the respective pH range, were:
The gel was cooled to 4° C. with the aid of a LKB 2209 refrigerated constant temperature circulator. After prefocusing for 30 min. at 5 W, the samples (20 μl containing 0.2 to 2.5 μg of antibiotic) were loaded into the slot at the cathodic side. Electrofocusing was performed using 10 W constant power and was completed after 3-31/2 hours with a final potential of 1400 V.
The pH values were determined by dividing a portion of the gel into 1 cm sections, and eluting the individual pieces at room temperature with 1 ml of 10 mM KCl prior to pH readings.
The isoelectric point of each antibiotic was determined by interpolation on a curve obtained by plotting pH values versus the distance from the anode.
Polyacrylamide gel was placed on a 3 mm layer of agar medium N. 1 inoculated with 1% of Bacillus subtilis ATCC 6633 spore (0.5 OD at 600 nm). After 10 min the gel was removed and the plate was incubated overnight at 37° C. and examined for inhibition zones. The contrast between the area of lysis and that of bacterial growth was enhanced by use of Phenolindo(2,6-dichlorophenol) 1% w/v (oxidation-reduction indicator).

[3] = system: E. coli SKF 12140; assay: In vitro antibacterial activity, standard agar-dilution test (MIC); assay type: cell-based; settings: inoculum about 10^4 CFU/ml, 18-24 h at 37° C.
Protocol: (§1) The culture medium ISOSENSITEST BROTH (Oxoid) and the colture medium TODD-[…] BROTH (Difco) are used for growing staphylococci and streptococci, respectively. Broth cultures are diluted so that the final inoculum is about 10^4 colony forming units/ml (CFU/ml).

[4] = system: Proteus vulgaris X 19H ATCC 881; assay: as above; assay type: cell-based; settings: inoculum about 10^4 CFU/ml, 18-24 h at 37° C.
Protocol: as §1

[5] = system: Pseudomonas aeruginosa ATCC 10145; assay: as above; assay type: cell-based; settings: inoculum about 10^4 CFU/ml, 18-24 h at 37° C.
Protocol: as §1

[6] = system: S. aureus Tour; assay: as above; assay type: cell-based; settings: inoculum about 10^4 CFU/ml, 18-24 h at 37° C.
Protocol: as §1

[7] = system: S. epidermidis ATCC 12228; assay: as above; assay type: cell-based; settings: inoculum about 10^4 CFU/ml, 18-24 h at 37° C.
Protocol: as §1

[8] = system: S. faecalis ATCC 7080; assay: as above; assay type: cell-based; settings: inoculum about 10^4 CFU/ml, 18-24 h at 37° C.
Protocol: as §1

[9] = system: S. pneumoniae UC 41; assay: as above; assay type: cell-based; settings: inoculum about 10^4 CFU/ml, 18-24 h at 37° C.
Protocol: as §1

[10] = system: S. pyogenes C 203; assay: as above; assay type: cell-based; settings: inoculum about 10^4 CFU/ml, 18-24 h at 37° C.
Protocol: as §1

[11] = system: S. pyogenes L 49; assay: In vivo test in mice experimentally infected with S. pyogenes L 49 (ED50); settings: mice infected with S. pyogenes L 49; for ED50, route of administration os.: oral
[12] = system: S. aureus ATCC 6538; assay: In vitro antibacterial activity, standard agar-dilution test (MIC); assay type: cell-based; settings: inoculum about 10^4 CFU/ml, 18-24 h at 37° C.
Protocol: as §1

SMILES	pK1 [1]	pK2 [1]	Isoelectric point (pI) [2]	MIC E. coli SKF 12140 [3] [µg/mL]	MIC Proteus vulgaris X 19H ATCC 881 [4] [µg/mL]	MIC Pseudomonas aeruginosa ATCC 10145 [5] [µg/mL]	MIC S. aureus Tour [6] [µg/mL]	MIC S. epidermidis ATCC 12228 [7] [µg/mL]	MIC S. faecalis ATCC 7080 [8] [µg/mL]	MIC S. pneumoniae UC 41 [9] [µg/mL]	MIC S. pyogenes C 203 [10] [µg/mL]	ED50, route of administration os. [11] [mg/kg]	ED50, route of administration s.c [11] [mg/kg]	MIC S. aureus ATCC 6538 [12] [µg/mL]	pK3 ([1]; value not in brackets)
NC1C(=O)NC2Cc3ccc(c(Cl)c3)Oc3cc4cc(c3O)Oc3ccc(cc3Cl)C(O)C3NC(=O)C(NC(=O)C4NC(=O)C(NC2=O)c2cc(O)cc(c2)Oc2cc1ccc2O)c1ccc(O)c(c1)-c1c(O)cc(O)cc1C(C(=O)NCCN1CCCC1)NC3=O (stereo not drawn) [Compound 22]	6.4	7.8	8.8	8 (≈ 6.18 µM)	64 (≈ 49.4 µM)	64 (≈ 49.4 µM)	0.12 (≈ 0.0927 µM)	0.016 (≈ 0.0124 µM)	0.12 (≈ 0.0927 µM)	0.12 (≈ 0.0927 µM)	0.06 (≈ 0.0463 µM)	> 300	1.6		
CC(=O)NC1C(OC2c3ccc(c(Cl)c3)Oc3cc4cc(c3O)Oc3ccc(cc3Cl)CC3NC(=O)C(N)c5ccc(O)c(c5)Oc5cc(O)cc(c5)C(NC3=O)C(=O)NC4C(=O)NC3C(=O)NC2C(=O)NC(C(=O)NCCCN(C)C)c2cc(O)cc(O)c2-c2cc3ccc2O)OC(CO)C(O)C1O (stereo not drawn) [Compound 13]			8.9	64 (≈ 43.1 µM)	> 128	> 128	0.12 (≈ 0.0807 µM)	0.06 (≈ 0.0404 µM)	0.25 (≈ 0.168 µM)	0.25 (≈ 0.168 µM)	0.12 (≈ 0.0807 µM)	> 300	2.2	0.12 (≈ 0.0807 µM)	
COC(=O)C(CCCCN)NC(=O)C1NC(=O)C2NC(=O)C(NC(=O)C3NC(=O)C4NC(=O)C(Cc5ccc(c(Cl)c5)Oc5cc3cc(c5O)Oc3ccc(cc3Cl)C2O)NC(=O)C(N)c2ccc(O)c(c2)Oc2cc(O)cc4c2)c2ccc(O)c(c2)-c2c(O)cc(O)cc21.Cl.Cl (stereo not drawn) [Compound 73]		6.5		4	32	32	0.06	0.06	0.12	0.06	0.12	> 300	0.81		8.9
CN(C)CCCCCNC(=O)C1NC(=O)C2NC(=O)C(NC(=O)C3NC(=O)C4NC(=O)C(Cc5ccc(c(Cl)c5)Oc5cc3cc(c5O)Oc3ccc(cc3Cl)C2O)NC(=O)C(N)c2ccc(O)c(c2)Oc2cc(O)cc4c2)c2ccc(O)c(c2)-c2c(O)cc(O)cc21 (stereo not drawn) [Compound 100]			9.0	8 (≈ 6.1 µM)	128 (≈ 97.6 µM)	64 (≈ 48.8 µM)	0.06 (≈ 0.0458 µM)	0.06 (≈ 0.0458 µM)	0.12 (≈ 0.0915 µM)	0.12 (≈ 0.0915 µM)	0.06 (≈ 0.0458 µM)				
NCCCCC(NC(=O)C1NC(=O)C2NC(=O)C(NC(=O)C3NC(=O)C4NC(=O)C(Cc5ccc(c(Cl)c5)Oc5cc3cc(c5O)Oc3ccc(cc3Cl)C2O)NC(=O)C(N)c2ccc(O)c(c2)Oc2cc(O)cc4c2)c2ccc(O)c(c2)-c2c(O)cc(O)cc21)C(=O)O (stereo not drawn) [Compound 84]			7.8	64 (≈ 48.2 µM)	> 128	> 128	0.12 (≈ 0.0904 µM)	0.06 (≈ 0.0452 µM)	0.12 (≈ 0.0904 µM)	0.12 (≈ 0.0904 µM)	0.12 (≈ 0.0904 µM)	> 300	1.65		
CC(=O)NC1C(OC2c3ccc(c(Cl)c3)Oc3cc4cc(c3O)Oc3ccc(cc3Cl)CC3NC(=O)C(N)c5ccc(O)c(c5)Oc5cc(O)cc(c5)C(NC3=O)C(=O)NC4C(=O)NC3C(=O)NC2C(=O)NC(C(=O)NCCN2CCOCC2)c2cc(O)cc(O)c2-c2cc3ccc2O)OC(CO)C(O)C1O (stereo not drawn) [Compound 14]	5.3	6.8	8.0	> 128	> 128	> 128	0.5 (≈ 0.33 µM)	0.12 (≈ 0.0792 µM)	0.5 (≈ 0.33 µM)	1 (≈ 0.66 µM)	0.5 (≈ 0.33 µM)				
Cl.Cl.NC1C(=O)NC2Cc3ccc(c(Cl)c3)Oc3cc4cc(c3O)Oc3ccc(cc3Cl)C(O)C3NC(=O)C(NC(=O)C4NC(=O)C(NC2=O)c2cc(O)cc(c2)Oc2cc1ccc2O)c1ccc(O)c(c1)-c1c(O)cc(O)cc1C(C(=O)NCCCN1CCOCC1)NC3=O (stereo not drawn) [Compound 78]			8.1	8	64	32	0.06	0.06	0.12	0.12	0.06	> 300	1.4		
NC1C(=O)NC2Cc3ccc(c(Cl)c3)Oc3cc4cc(c3O)Oc3ccc(cc3Cl)C(O)C3NC(=O)C(NC(=O)C4NC(=O)C(NC2=O)c2cc(O)cc(c2)Oc2cc1ccc2O)c1ccc(O)c(c1)-c1c(O)cc(O)cc1C(C(=O)NCCCCCC(=O)NC1C(O)OC(CO)C(O)C1O)NC3=O (stereo not drawn) [Compound 31]	6.45		7.9	64 (≈ 43.4 µM)	> 128	> 128	0.5 (≈ 0.339 µM)	0.063 (≈ 0.0428 µM)	0.25 (≈ 0.17 µM)	0.25 (≈ 0.17 µM)	0.12 (≈ 0.0815 µM)	> 300	2.9		
Cl.Cl.NC1C(=O)NC2Cc3ccc(c(Cl)c3)Oc3cc4cc(c3O)Oc3ccc(cc3Cl)C(O)C3NC(=O)C(NC(=O)C4NC(=O)C(NC2=O)c2cc(O)cc(c2)Oc2cc1ccc2O)c1ccc(O)c(c1)-c1c(O)cc(O)cc1C(C(=O)NC1CN2CCC1CC2)NC3=O (stereo not drawn) [Compound 83]			8.9	8	64	32	0.12	0.06	0.12	0.06	0.06	> 300	0.46		
